Assays:
[1] = biological target: T1, 6-phosphofructo-1-kinase (PFK) (Rattus norvegicus, UniProt P30835); assay: PFK stimulation, aldolase-coupled spectrophotometric assay; format: biochemical; conditions: stimulation of purified rat liver 6-phosphofructo-1-kinase; 0.2 mM fructose-6-phosphate, pH 7.3, 30° C.; read-out: PFK ED50
T1 construct: purified rat liver 6-phosphofructo-1-kinase; from tissue; host or cells: rat liver
T1 sequence (P30835 2-780 limits assumed): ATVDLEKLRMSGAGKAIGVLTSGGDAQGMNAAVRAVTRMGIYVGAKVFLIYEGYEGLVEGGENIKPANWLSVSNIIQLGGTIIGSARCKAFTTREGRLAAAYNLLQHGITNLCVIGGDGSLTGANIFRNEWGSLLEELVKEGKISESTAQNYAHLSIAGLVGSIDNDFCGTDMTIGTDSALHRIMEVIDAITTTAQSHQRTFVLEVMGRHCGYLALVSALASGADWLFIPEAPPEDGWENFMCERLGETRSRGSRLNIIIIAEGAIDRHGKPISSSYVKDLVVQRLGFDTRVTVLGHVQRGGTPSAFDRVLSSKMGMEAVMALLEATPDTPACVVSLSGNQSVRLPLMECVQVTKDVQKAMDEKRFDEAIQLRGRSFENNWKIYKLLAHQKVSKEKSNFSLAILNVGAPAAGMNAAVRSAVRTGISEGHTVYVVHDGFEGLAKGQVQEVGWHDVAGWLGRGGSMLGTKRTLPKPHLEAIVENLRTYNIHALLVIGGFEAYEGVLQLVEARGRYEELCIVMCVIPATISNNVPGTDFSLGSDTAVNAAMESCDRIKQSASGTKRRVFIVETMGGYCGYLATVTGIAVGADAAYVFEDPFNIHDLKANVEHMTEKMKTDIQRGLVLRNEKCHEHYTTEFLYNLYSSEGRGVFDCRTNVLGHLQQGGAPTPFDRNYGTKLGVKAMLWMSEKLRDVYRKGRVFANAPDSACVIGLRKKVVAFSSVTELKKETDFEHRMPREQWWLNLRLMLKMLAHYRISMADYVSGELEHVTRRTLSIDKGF
Method: (§1) The novel compounds of this invention were tested for their ability to stimulate the enzyme 6-phosphofructo-1-kinase ("PFK") and for their ability to inhibit the enzyme fructose-1,6-bisphosphatase ("FBP") using the procedures described below.
Effects on the activity of PFK were determined using an aldolase-coupled, spectrophotometric assay. The assay mixture contained: […] N-tris-(hydroxymethyl)-methyl-2-aminoethanesulfonic acid, hydrochloride ("TES-HCl", pH 7.3); 1 mM ethylenediaminetetraacetic acid ("EDTA"); 6 mM magnesium chloride; 2.5 mM dithiothreitol; 0.165 mM nicotinamide adenine dinucleotide ("NADH"); 1 mM adenosine triphosphate ("ATP"); 0.04 U aldolase; 0.4 U triose phosphate isomerase; alpha-glycerolphosphate dehydrogenase (1.5 U/ml); 0.1 U of purified rat liver 6-phosphofructo-1-kinase; and various concentrations of the test compound, all in a final volume of 1 ml. The mixture was preincubated for 3 minutes at 30° C. and then the reaction was initiated with 0.2 mM fructose-6-phosphate. The rate of decrease in absorbance at 340 nm was measured at 30° C. with a recording spectrophotometer.

[2] = biological target: T2, fructose-1,6-bisphosphatase (FBP) (Rattus norvegicus, UniProt P19112); assay: FBP inhibition, spectrophotometric assay; format: biochemical; conditions: inhibition of purified rat liver FBP; 0.02 mM fructose-1,6-bisphosphate, pH 7.4, 30° C.
T2 construct: purified rat liver FBP; from tissue; host or cells: rat liver
T2 sequence (P19112 2-363 limits assumed): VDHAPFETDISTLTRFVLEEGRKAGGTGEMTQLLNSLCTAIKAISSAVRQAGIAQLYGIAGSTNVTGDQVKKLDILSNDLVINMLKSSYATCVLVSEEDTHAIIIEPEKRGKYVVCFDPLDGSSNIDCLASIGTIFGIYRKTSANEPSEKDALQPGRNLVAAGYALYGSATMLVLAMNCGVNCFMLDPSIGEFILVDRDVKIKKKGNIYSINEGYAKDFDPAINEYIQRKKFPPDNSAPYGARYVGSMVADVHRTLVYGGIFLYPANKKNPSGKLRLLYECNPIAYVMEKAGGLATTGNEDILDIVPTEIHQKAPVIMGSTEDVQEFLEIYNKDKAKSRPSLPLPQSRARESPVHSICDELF
Method: as §1
Effects on the activity of FBP were determined using a spectrophotometric assay. The assay mixture contained 100 mM tris(hydroxymethyl)aminomethane,hydrochloride ("TRIS-HCl", pH 7.4); 2.5 mM betamercaptoethanol; 2 mM magnesium chloride; 0.05 mM EDTA; 0.2 mM nicotinamide adenine dinucleotide phosphate ("NADP"); 10 U phosphoglucose isomerase; 5 U glucose-6-phosphatedehydrogenase; 0.02 U of purified rat liver FBP; and various concentrations of the test compound, all in a final volume of 1 ml. The mixture was preincubated for 3 minutes at 30° C. and then the reaction was initiated with 0.02 mM fructose-1,6-bisphosphate. The rate of increase in absorbance at 340 nm was measured at 30° C. with a recording spectrophotometer.

| SMILES | EC50 [1] | IC50 [2] |
| --- | --- | --- |
| O=P(O)(O)C[C@]1(CO)O[C@H](COP(=O)(O)O)[C@@H](O)[C@@H]1O [2,5-Anhydro-1-deoxy-2-C-(hydroxymethyl)-1-phosphono-D-glucitol, 6-(dihydrogen phosphate)] | 12 µM | 240 µM |
| O=P(O)(O)CCC[C@@H]1O[C@H](COP(=O)(O)O)[C@@H](O)[C@@H]1O [4,7-Anhydro-1,2,3-trideoxy-1-(dihydroxyphosphinyl)-D-gluco-octitol, 8-(dihydrogen phosphate)] | 12 µM |  |
| O=P(O)(O)C[C@@H]1O[C@H](COP(=O)(O)O)[C@@H](O)[C@@H]1O [2,5-Anhydro-1-deoxy-1-phosphono-D-glucitol, 6-(dihydrogen phosphate)] | 20 µM | 602 µM |
| O=P(O)(O)CCC[C@H]1O[C@H](COP(=O)(O)O)[C@@H](O)[C@@H]1O [4,7-anhydro-1,2,3-trideoxy-1-(dihydroxyphosphinyl)-D-manno-octitol, 8-(dihydrogen phosphate)] | 27 µM | 200 µM |
| O=P(O)(O)CC[C@H]1O[C@H](COP(=O)(O)O)[C@@H](O)[C@@H]1O [3,6-Anhydro-1,2-dideoxy-1-phosphono-D-manno-heptitol, 7-(dihydrogen phosphate)] | 6 µM | 80 µM |
| O=P(O)(O)C[C@@]1(CO)O[C@H](COP(=O)(O)O)[C@@H](O)[C@@H]1O [2,5-Anhydro-1-deoxy-2-C-(hydroxymethyl)-1-phosphono-D-mannitol, 6-(dihydrogen phosphate)] | 6 µM | 393 µM |
| O=P(O)(O)C[C@H]1O[C@H](COP(=O)(O)O)[C@@H](O)[C@@H]1O [2,5-Anhydro-1-deoxy-1-phosphono-D-mannitol, 6-(dihydrogen phosphate)] | 4 µM | 58 µM |

Source: US4945158A, “Antidiabetic phosphonates” (American Cyanamid Company, priority 1988, dated 1990)
